The subject of data set [1] is hemorrhagic activity of B. anthracis culture supernatant (BACS). Further details: species or system B. anthracis (delta Ames). Conditions: in vivo, sc.
Another data set has as its system B. anthracis (Sterne). On the set-up: species or system Bacillus anthracis. The conditions noted are these: in vivo.
In data set [2] the test system is BACS proteolytic activity. Format: biochemical, B. anthracis.
The conditions of data set [3]: mouse, in vivo.

Consider eight molecules from patent publication US20070231334A1 (priority 2004, published 2007).

“Also recorded” adds a separate entry of the source. Read-outs that look alike come from different tables or passages of the source.

Take `O=C(O)CN(CCN(CC(=O)O)CC(=O)O)CC(=O)O` [EDTA, ethylenediaminetetraacetic acid]: the “suppression of hemorrhagic effect of BACS” value (shortened to “suppression”) in data set [1] is given as “effectively abrogated”.

Consider `O=C(O)c1cn(C2CC2)c2cc(N3CCNCC3)c(F)cc2c1=O` [ciprofloxacin], for which, in the data set on B. anthracis (Sterne), the effectiveness of treatment entry is reported as “ineffective”, the survival worked out at 20% and the “survival (effectiveness)” value was determined as 70%. The same molecule displayed a survival in the data set with B. anthracis (Sterne) (ip) of 20%.

Turning to `C[C@H]1c2cccc(O)c2C(=O)C2=C(O)[C@]3(O)C(=O)C(C(N)=O)=C(O)[C@@H](N(C)C)[C@@H]3[C@@H](O)[C@@H]21` [doxycycline], the survival in the data set with B. anthracis (Sterne) (ip) was found to be 30%.

In the case of `CC[C@@H](C)[C@@H](O)[C@H](C)C(=O)[C@H](C)/C=C(\C)C[C@H](C)[C@@H]1OC(=O)[C@H]1CC` [ebelactone B], the “effect on survival / protection” value with B. anthracis (Sterne) is “did not increase survival over the effects of doxycycline alone”.

Consider `c1cnc2c(c1)ccc1cccnc12` [phenanthroline, 1,10-phenanthroline], for which, in data set [2], the “inhibition of hydrolysis of gelatin and casein by BACS” value is recorded as “inhibited”.

On to `CC(C)C[C@H](NP(=O)(O)O[C@@H]1O[C@@H](C)[C@H](O)[C@@H](O)[C@H]1O)C(=O)N[C@@H](Cc1c[nH]c2ccccc12)C(=O)O` [phosphoramidon], for which, in data set [1], the “suppression” value is “effective; also recorded: effectively abrogated”. For the same molecule, in data set [2], the “inhibition of hydrolysis of gelatin and casein by BACS” value is on record as “inhibited”.

B1: thermolysin: thermolysin (EC 3.4.24.27) from Bacillus thermoproteolyticus (protein, UniProt P00800 233-548, looked up)
Thermolysin: ITGTSTVGVGRGVLGDQKNINTTYSTYYYLQDNTRGNGIFTYDAKYRTTLPGSLWADADNQFFASYDAPAVDAHYYAGVTYDYYKNVHNRLSYDGNNAAIRSSVHYSQGYNNAFWNGSQMVYGDGDGQTFIPLSGGIDVVAHELTHAVTDYTAGLIYQNESGAINEAISDIFGTLVEFYANKNPDWEIGEDVYTPGISGDSLRSMSDPAKYGDPDHYSKRYTGTQDNGGVHINSGIINKAAYLISQGGTHYGVSVVGIGRDKLGKIFYRALTQYLTPTSNFSQLRAAAVQSATDLYGSTSQEVASVKQAFDAVGVK
B1: the “dose range in which hemorrhagic activity was detectable” value in data set [3] fell in the range of 10 to 100 µg.

B2: SBTI (protein, UniProt P01070 25-205, looked up)
Trypsin inhibitor A: DFVLDNEGNPLENGGTYYILSDITAFGGIRAAPTGNERCPLTVVQSRNELDKGIGTIISSPYRIRFIAEGHPLSLKFDSFAVIMLCVGIPTEWSVVEDLPEGPAVKIGENKDAMDGWFRLERVSDDEFNNYKLVFCPQQAEDDKCGDIGISIDHDDGTRRLVVSKNKPLVVQFQKLDKESL
Take B2: in data set [1], the “suppression” value is reported as “effectively abrogated”.
